Experimental findings from US12390446B2 (RESEARCH TRIANGLE INSTITUTE, priority 2017, dated 2025) are described below.

In experiment [1] the target is T1, NPFF2 receptor (human NPFFR2 in CHO-RD-HGA16 cells) (Homo sapiens, UniProt Q9Y5X5).
T1 construct: expressed in transfected cells
Put plainly: Calcium mobilization functional Ke assay, NPFF2. The format is cell-based. To be noted: read-out: NPFF2 Ke.

Experiment [2] concerns the target T2, NPFF1 receptor (human NPFFR1 in CHO-RD-HGA16 cells) (Homo sapiens, UniProt Q9GZQ6).
T2 construct: expressed in transfected cells
Put plainly: Calcium mobilization functional Ke assay, NPFF1. The format is cell-based. As to conditions: for Kb: read-out: NPFF1 Ke.

The mark [3] stands for this setting: Table 1, mean ± SEM, apparent dissociation constant vs NPFF.
Where [4] appears, read: Table 1, footnote c: pre-incubation of antagonist and test compound 45 min or 1 hr.

Where two headings read alike, the source gives them in different places.

T2 sequence (Q9GZQ6 whole entry): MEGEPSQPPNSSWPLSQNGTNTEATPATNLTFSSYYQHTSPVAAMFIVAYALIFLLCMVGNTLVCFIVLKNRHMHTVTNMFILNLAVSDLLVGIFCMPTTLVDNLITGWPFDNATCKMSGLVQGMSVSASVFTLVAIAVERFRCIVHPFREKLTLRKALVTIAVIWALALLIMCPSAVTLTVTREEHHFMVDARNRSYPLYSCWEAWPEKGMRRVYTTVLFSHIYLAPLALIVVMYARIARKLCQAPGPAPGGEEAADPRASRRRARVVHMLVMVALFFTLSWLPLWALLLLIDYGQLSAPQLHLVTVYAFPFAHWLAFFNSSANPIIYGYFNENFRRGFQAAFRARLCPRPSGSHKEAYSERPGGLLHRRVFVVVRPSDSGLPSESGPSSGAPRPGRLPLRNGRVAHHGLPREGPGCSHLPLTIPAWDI
T1 sequence (Q9Y5X5 whole entry): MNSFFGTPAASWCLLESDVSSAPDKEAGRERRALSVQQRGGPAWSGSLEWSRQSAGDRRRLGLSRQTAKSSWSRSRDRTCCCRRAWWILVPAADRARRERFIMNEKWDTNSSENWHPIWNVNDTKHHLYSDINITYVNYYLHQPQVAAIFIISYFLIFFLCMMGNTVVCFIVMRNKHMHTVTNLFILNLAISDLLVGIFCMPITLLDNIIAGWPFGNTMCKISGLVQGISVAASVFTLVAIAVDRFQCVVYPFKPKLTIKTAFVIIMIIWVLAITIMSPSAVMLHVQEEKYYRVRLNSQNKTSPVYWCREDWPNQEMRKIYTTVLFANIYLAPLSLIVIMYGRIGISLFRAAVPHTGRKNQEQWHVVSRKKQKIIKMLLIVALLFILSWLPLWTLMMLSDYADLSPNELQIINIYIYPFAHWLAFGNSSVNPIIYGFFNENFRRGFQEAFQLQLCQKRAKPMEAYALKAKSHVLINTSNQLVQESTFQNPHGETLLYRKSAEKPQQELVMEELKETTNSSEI

Turning to `COc1ccc(CN[C@H]2C[C@@H](C(=O)NCCc3ccccc3)N(Cc3ccc(C#N)cc3)C2)cc1` [Compound 86, (2S,4S)-1-[(4-Cyanophenyl)methyl]-4-{[(4-methoxyphenyl)methyl]amino}-N-(2-phenylethyl)pyrrolidine-2-carboxamide], the Kb in experiment [1] (Table 4, mean ± SEM) is above 10000 nM; in experiment [2] (Table 4, mean ± SEM) it was 3830 nM. Take `COc1ccc(CN[C@H]2C[C@@H](C(=O)NCCc3ccccc3)N(Cc3cccc(Cl)c3)C2)cc1` [Compound 77, (2S,4S)-1-[(3-Chlorophenyl)methyl]-4-{[(4-methoxyphenyl)methyl]amino}-N-(2-phenylethyl)pyrrolidine-2-carboxamide]: the Kb in experiment [1] (Table 4, mean ± SEM) was determined as 4100 nM; in experiment [2] (Table 4, mean ± SEM), 580 ± 50 nM. The “preference / selectivity for NPFF1 over NPFF2” value in experiment [2] (from calcium mobilization Ke values) is on record as above 10 fold. For `COc1ccc(CN[C@H]2C[C@@H](C(=O)NCCc3ccncc3)N(Cc3ccccc3Cl)C2)cc1` [Compound 37, (2S,4S)-1-[(2-Chlorophenyl)methyl]-4-{[(4-methoxyphenyl)methyl]amino}-N-[2-(pyridin-4-yl)ethyl]pyrrolidine-2-carboxamide], the Kb in experiment [2] (setting [3]) is 1820 nM. Further, in experiment [2] (calcium mobilization assay), the “NPFF1 Ke” value was 1,820 nM. Regarding `O=C(NCCc1ccc([N+](=O)[O-])cc1)[C@@H]1C[C@H](NCc2ccccc2)CN1Cc1ccccc1Cl` [Compound 56, (2S,4S)-4-(Benzylamino)-1-[(2-chlorophenyl)methyl]-N-[2-(4-nitrophenyl)ethyl]pyrrolidine-2-carboxamide], the Kb was 1400 nM in experiment [1] (Table 3, mean ± SEM) and 1230 nM in experiment [2] (Table 3, mean ± SEM). As for `CCCN[C@H]1C[C@@H](C(=O)NCCc2ccc([N+](=O)[O-])cc2)N(Cc2ccccc2Cl)C1` [Compound 52], the Kb in experiment [1] (Table 3, mean ± SEM) is above 10000 nM; in experiment [2] (Table 3, mean ± SEM) it was 5160 nM. For the compound `CCC(C)NC(=O)[C@@H]1C[C@H](NCc2ccc(OC)cc2)CN1Cc1ccccc1Cl` (stereo partly drawn) [Compound 14, (2S,4S)—N-(Butan-2-yl)-1-[(2-chlorophenyl)methyl]-4-{[(4-methoxyphenyl)methyl]amino}pyrrolidine-2-carboxamide], the Kb in experiment [1] (setting [3]) stood at 3680 nM; in experiment [2] (setting [3]) it was 1500 nM.

Consider `CCCCCN[C@H]1C[C@@H](C(=O)NCCc2ccc([N+](=O)[O-])cc2)N(Cc2ccccc2Cl)C1` [Compound 54, (2S,4S)-1-[(2-Chlorophenyl)methyl]-N-[2-(4-nitrophenyl)ethyl]-4-(pentylamino) pyrrolidine-2-carboxamide], for which the Kb in experiment [1] (Table 3, mean ± SEM) is above 10000 nM; in experiment [2] (Table 3, mean ± SEM), 2480 nM. As to `CSc1ccc(CN[C@H]2C[C@@H](C(=O)NCCc3ccc(F)c(F)c3)N(Cc3ccccc3Cl)C2)cc1` [Compound 48, (2S,4S)-1-[(2-Chlorophenyl)methyl]-N-[2-(3,4-difluorophenyl)ethyl]-4-{[(4-(methylthio)phenyl)methyl]amino}pyrrolidine-2-carboxamide], the Kb in experiment [1] (Table 2, footnote c: pre-incubation 1 hr) was determined as 880 ± 160 nM; in experiment [2] (Table 2, 4-(4-methylthio)benzylamino series, mean ± SEM), 470 ± 60 nM; in experiment [2] (calcium mobilization assay) it was 470 nM.

Take `COc1ccc(CN[C@H]2C[C@@H](C(=O)NCCc3ccccc3)N(Cc3ccc4ccccc4c3)C2)cc1` [Compound 87, (2S,4S)-4-{[(4-Methoxyphenyl)methyl]amino}-1-(naphthalen-2-ylmethyl)-N-(2-phenylethyl)pyrrolidine-2-carboxamide]: the Kb in experiment [1] (Table 4, mean ± SEM) turned out to be 7220 nM; in experiment [2] (Table 4, mean ± SEM), 1720 nM. Regarding `COc1ccc(CN[C@H]2C[C@@H](C(=O)NCCc3ccccc3)N(Cc3ccc(OC)c(OC)c3)C2)cc1` [Compound 81, (2S,4S)-1-[(3,4-Dimethoxyphenyl)methyl]-4-{[(4-methoxyphenyl)methyl]amino}-N-(2-phenylethyl)pyrrolidine-2-carboxamide], the Kb came out at 5360 nM in experiment [1] (Table 4, mean ± SEM) and 9020 nM in experiment [2] (Table 4, mean ± SEM). On to `COc1cccc(CN[C@H]2C[C@@H](C(=O)NCCc3ccc([N+](=O)[O-])cc3)N(Cc3ccccc3Cl)C2)c1` [Compound 59, (2S,4S)-1-[(2-Chlorophenyl)methyl]-4-{[(3-methoxyphenyl)methyl]amino}-N-[2-(4-nitrophenyl)ethyl]pyrrolidine-2-carboxamide], for which the Kb in experiment [1] (Table 3, mean ± SEM) was found to be 2820 nM; in experiment [2] (Table 3, mean ± SEM) it was 1390 nM.

For the compound `CCCNC(=O)[C@@H]1C[C@H](NCc2ccc(OC)cc2)CN1Cc1ccccc1Cl` [Compound 12, (2S,4S)-1-[(2-Chlorophenyl)methyl]-4-{[(4-methoxyphenyl)methyl]amino}-N-propylpyrrolidine-2-carboxamide], the values for the Kb in experiment [1] (setting [3]), in experiment [2] (setting [3]) and in experiment [2] (calcium mobilization assay) were 9080 nM, 2600 nM and 9080 nM, respectively. Regarding `O=C(NCCc1ccc([N+](=O)[O-])cc1)[C@@H]1C[C@H](NCCc2ccccc2)CN1Cc1ccccc1Cl` [Compound 58], the Kb in experiment [1] (Table 3, mean ± SEM) is 1130 nM; in experiment [2] (Table 3, mean ± SEM), 1150 nM. In the case of `CCCCNC(=O)[C@@H]1C[C@H](NCc2ccc(OC)cc2)CN1Cc1ccccc1Cl` [Compound 13, (2S,4S)—N-Butyl-1-[(2-chlorophenyl)methyl]-4-{[(4-methoxyphenyl)methyl]amino}pyrrolidine-2-carboxamide], the Kb in experiment [2] (setting [3]) came out at 1240 nM. As to `COc1ccc(CN[C@H]2C[C@@H](C(=O)NCCCc3ccccc3)N(Cc3ccccc3Cl)C2)cc1` [Compound 25, (2S,4S)-1-[(2-Chlorophenyl)methyl]-4-{[(4-methoxyphenyl)methyl]amino}-N-(3-phenylpropyl)pyrrolidine-2-carboxamide], the Kb in experiment [1] (setting [4]) is 2600 nM; in experiment [2], above 10000 nM.

Turning to `COc1ccc(CN[C@H]2C[C@@H](C(=O)NCCc3ccccc3)N(Cc3ccc(Cl)cc3)C2)cc1` [Compound 78, (2S,4S)-1-[(4-Chlorophenyl)methyl]-4-{[(4-methoxyphenyl)methyl]amino}-N-(2-phenylethyl)pyrrolidine-2-carboxamide], the Kb in experiment [1] (Table 4, mean ± SEM) amounted to 4850 nM; in experiment [2] (Table 4, mean ± SEM), 2150 nM.

Take `COc1ccc(CN[C@H]2C[C@@H](C(=O)NCCC3CCCCC3)N(Cc3ccccc3Cl)C2)cc1` [Compound 21, (2S,4S)-1-[(2-Chlorophenyl)methyl]-N-(2-cyclohexylethyl)-4-{[(4-methoxyphenyl)methyl]amino}pyrrolidine-2-carboxamide]: the Kb in experiment [1] (setting [4]) was found to be 1220 nM; in experiment [2] (setting [3]), 1120 nM. Take `COc1ccc(CN[C@H]2C[C@@H](C(=O)NCCc3ccc(C(F)(F)F)cc3)N(Cc3ccccc3Cl)C2)cc1` [Compound 36, (2S,4S)-1-[(2-Chlorophenyl)methyl]-4-{[(4-methoxyphenyl)methyl]amino}-N-{2-[4-(trifluoromethyl)phenyl]ethyl}pyrrolidine-2-carboxamide]: the Kb in experiment [2] (setting [3]) worked out at 1670 nM. Moreover, the “NPFF1 Ke” value in experiment [2] (calcium mobilization assay) was 1,670 nM. In the case of `COc1ccc(CN[C@H]2C[C@@H](C(=O)NCCc3ccc(S(C)(=O)=O)cc3)N(Cc3ccccc3Cl)C2)cc1` [Compound 39, (2S,4S)-1-[(2-Chlorophenyl)methyl]-N-[2-(4-methanesulfonylphenyl)ethyl]-4-{[(4-methoxyphenyl)methyl]amino}pyrrolidine-2-carboxamide], the Kb in experiment [2] (setting [3]) worked out at 1880 nM. `CCCCCCCCCCNC(=O)[C@@H]1C[C@H](NCc2ccc(OC)cc2)CN1Cc1ccccc1Cl` [Compound 19, (2S,4S)-1-[(2-Chlorophenyl)methyl]-N-decyl-4-{[(4-methoxyphenyl)methyl]amino}pyrrolidine-2-carboxamide]: the Kb in experiment [2] (setting [4]) is above 10000 nM.

Turning to `COc1ccc(CN[C@H]2C[C@@H](C(=O)NCCN3CCOCC3)N(Cc3ccccc3Cl)C2)cc1` [Compound 20, (2S,4S)-1-[(2-Chlorophenyl)methyl]-4-{[(4-methoxyphenyl)methyl]amino}-N-[2-(morpholin-4-yl)ethyl]pyrrolidine-2-carboxamide], the Kb in experiment [2] (setting [3]) was 1960 nM.
